Data published in PubChem BioAssay AID248 (DTP/NCI, 2004).
Toxic doses and inconclusive results are not listed. No stated cut-off is given here; in the data, active means T/C of 150% or more; inactive means T/C below 125%.

System: L1210 leukemia ip in BDF1 mice, survival T/C
Test: NCI In Vivo Anticancer Drug Screen. Data for tumor model L1210 Leukemia (intraperitoneal) in B6D2F1 (BDF1) mice
Settings: endpoint: mean survival time, schedule: Q04DX003 (ip), vehicle: saline with Tween-80, higher = longer survival
Procedure, shortened: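 Tumor was transplanted into mice, which were then dosed with test compound or vehicle alone. Survival was recorded for each group, and the treated figure was expressed relative to the control figure.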

Measured: T/C

CCOC(=O)C1=C(C)NC(=O)NC1c1ccc(N=Cc2cc(Br)ccc2O)cc1 (stereo not drawn)
inactive: dose: 100.0 mg/kg/injection 97 % of control | dose: 200.0 mg/kg/injection 97 % of control | dose: 400.0 mg/kg/injection 89 % of control
